From patent US20070037752A1, “Novel alanyl-amino peptidase inhibitors for functionally influencing different cells and treating immunological, inflammatory, neuronal, and other diseases” (priority 2003, published 2007)
Where two headings read alike, the source gives them in different places. Each block holds one compound with its values, some of them ahead of it.

Target: alanyl aminopeptidases (APN) (Homo sapiens, UniProt P15144)
Test: Inhibition of alanyl aminopeptidase enzymatic activity, fluorogenic substrate (Ala)2-rhodamine 110
Format: biochemical
Experimental: The inhibition characteristics measured are referred to as IC-50 values or ID50 values (the latter marked with “*”) for said enzyme. The enzymatic activity was determined by means of the fluorogenic substrate/product (Ala)2-rhodamine 110.

[1] = Table 3, unstarred values, read-out: IC50APN
[2] = Table 9, unstarred values, read-out: IC50APN
[3] = Table 4, unstarred values, read-out: IC50APN
[4] = Table 3, starred values = ID50, read-out: ID50 APN (values marked with *)
[5] = Table 4, starred values = ID50, read-out: ID50 APN (values marked with *)

alanyl aminopeptidases (APN), sequence (P15144 whole entry, species assumed): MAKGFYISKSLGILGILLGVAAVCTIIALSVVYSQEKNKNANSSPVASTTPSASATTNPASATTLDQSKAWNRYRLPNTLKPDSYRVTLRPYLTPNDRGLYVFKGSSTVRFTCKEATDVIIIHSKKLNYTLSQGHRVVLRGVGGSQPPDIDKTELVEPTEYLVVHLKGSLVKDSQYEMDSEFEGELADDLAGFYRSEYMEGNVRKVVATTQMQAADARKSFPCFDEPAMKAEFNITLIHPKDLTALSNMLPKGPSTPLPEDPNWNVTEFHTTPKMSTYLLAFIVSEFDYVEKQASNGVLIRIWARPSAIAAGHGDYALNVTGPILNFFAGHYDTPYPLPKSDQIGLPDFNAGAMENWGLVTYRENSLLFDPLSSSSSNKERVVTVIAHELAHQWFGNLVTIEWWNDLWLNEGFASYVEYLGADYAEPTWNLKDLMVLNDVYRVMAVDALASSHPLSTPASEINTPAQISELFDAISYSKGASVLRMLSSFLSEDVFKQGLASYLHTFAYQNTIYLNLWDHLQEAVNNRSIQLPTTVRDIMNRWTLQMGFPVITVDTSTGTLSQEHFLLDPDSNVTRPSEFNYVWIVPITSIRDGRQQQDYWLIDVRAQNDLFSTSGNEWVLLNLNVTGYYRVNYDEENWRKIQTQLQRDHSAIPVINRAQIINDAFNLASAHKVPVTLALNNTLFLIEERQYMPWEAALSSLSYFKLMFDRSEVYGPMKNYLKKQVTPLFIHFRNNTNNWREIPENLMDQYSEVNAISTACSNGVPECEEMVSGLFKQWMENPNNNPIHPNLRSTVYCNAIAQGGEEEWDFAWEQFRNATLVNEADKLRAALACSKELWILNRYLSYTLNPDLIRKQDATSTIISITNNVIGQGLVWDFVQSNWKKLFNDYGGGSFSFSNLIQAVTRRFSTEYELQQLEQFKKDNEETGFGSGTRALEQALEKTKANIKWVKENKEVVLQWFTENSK

IC50 [1]: 32 µM
SMILES: CCCOC(=O)c1cc(-c2ccc(/C=C3/C(=O)N(CC(C)O)C(=O)C(C#N)=C3C)o2)ccc1Cl (centres unmarked) [A3.193]

IC50 [2]: 18.1 µM
SMILES: C=CCOC(=O)c1cc(-c2ccc(/C=C3/C(=O)N(CCCO)C(=O)C(C#N)=C3C)o2)ccc1Cl [A9.040]

IC50 [1]: 33.9 µM
SMILES: Cc1ccccc1NC(=O)C1C(c2cccs2)C(C#N)=C(SCC(=O)Nc2ccc(Br)cc2)NC1(C)O (centres unmarked) [A3.204]

IC50 [3]: 27.3 µM
SMILES: CCCOc1ccc(/C=C(\NC(=O)c2ccccc2)C(=O)N/N=C/c2ccco2)cc1 [A4.086]

IC50 [4]: 305 µM
SMILES: O=C(N/N=C/c1ccco1)c1ccc([N+](=O)[O-])cc1 [A3.347]

IC50 [5]: 67.1 µM
SMILES: Cc1cccc(C(=O)Nc2ccc(C(=O)N/N=C/c3ccco3)cc2)c1 [A4.158]

IC50 [1]: 142 µM
SMILES: COc1cccc(/C=N/NC(=O)c2ccn(C)n2)c1O [A3.328]

IC50 [5]: 305 µM
SMILES: O=C(N/N=C/c1ccco1)c1ccc([N+](=O)[O-])cc1 [A4.185]

IC50 [1]: 6.3 µM
SMILES: COC(=O)c1cccc(-c2ccc(/C=C3\C(=O)N(CCO)C(=O)C(C#N)=C3C)o2)c1 [A3.023]

IC50 (Table 11, read-out: IC50APN): 16.3 µM
SMILES: O=[N+](O)CC(c1ccccc1)P(=O)(c1ccccc1)c1ccccc1 (centres unmarked) [A11.011]

IC50 [1]: 45 µM
SMILES: CC1CCN(C(=O)/C(=C\c2ccco2)NC(=O)c2ccccc2)CC1 [A3.244]

IC50 (Table 11, read-out: IC50APN): 99.8 µM
SMILES: CC1CC(=O)N(C(=O)CCBr)c2ccc([N+](=O)[O-])cc2N1C(=O)CCBr (centres unmarked) [A11.033]

IC50 (Table 8, unstarred values, read-out: IC50APN): 4.7 µM
SMILES: COC(=O)C1=C(C(=O)OC)C(c2cc(Br)ccc2O)c2sc(O)nc2S1 (centres unmarked) [A8.003]

IC50 (Table 11, read-out: IC50APN): 26.4 µM
SMILES: O=C1CNC(c2cccc([N+](=O)[O-])c2)N1O (centres unmarked) [A11.018]

IC50 [5]: 113 µM
SMILES: Cn1cccc1CC(=O)N/N=C\c1ccco1 [A4.174]

IC50 [1]: 16 µM
SMILES: O=C(N/N=C/C=C\c1ccco1)c1ccco1 [A3.074]

IC50 [1]: 4.9 µM
SMILES: O=C(Nc1ccc(NCc2cc(Cc3ccccc3Cl)cc(Br)c2O)cc1)c1ccco1 [A3.017]

IC50 [3]: 29.4 µM
SMILES: COc1ccc(/C(C)=N/NC(=O)CNC(=O)/C=C\c2ccco2)cc1 [A4.093]

IC50 [1]: 48.2 µM
SMILES: Cc1cc(C(=O)N/N=C/c2ccco2)[nH]n1 [A3.255]

IC50 [1]: 20.9 µM
SMILES: O=C(N/N=C/c1ccco1)c1cc(-c2ccco2)n[nH]1 [A3.113]

IC50 [4]: 126 µM
SMILES: COC(=O)c1c(N)ncn1-c1ccccc1 [A3.323]

IC50 (Table 13, read-out: IC50APN): 41 µM
SMILES: CCOC(=O)c1cc(-c2ccc(/C=C3\C(=O)N(CCCO)C(=O)C(C#N)=C3C)o2)ccc1Cl [A13.020]

IC50 [1]: 11.1 µM
SMILES: C=CC[N+]1=C(/C=C2\SC(c3ccccc3)=C(c3ccccc3)N2CC)S/C(=C/C=C2\SC(c3ccccc3)=C(c3ccccc3)N2CC)C1=O [A3.045]

IC50 [5]: 48.1 µM
SMILES: O=C(O)CC1S/C(=N/N=C/c2ccco2)NC1=O (centres unmarked) [A4.138]

IC50 (Table 11, read-out: IC50APN): 11.4 µM
SMILES: CC(NC(=O)C(=O)N/N=C\c1cc([N+](=O)[O-])ccc1O)c1ccccc1 (centres unmarked) [A11.007]

IC50 [1]: 32.8 µM
SMILES: CC(=O)N1CCOC1(C)c1ccc([N+](=O)[O-])cc1 (centres unmarked) [A3.200]

IC50 (Table 6, read-out: IC50APN): 22.3 µM
SMILES: CCOC(=O)c1c(C)oc2c1c1c(c3ccccc32)OCN(C2CCS(=O)(=O)C2)C1 (centres unmarked) [A6.010]

IC50 [1]: 7.4 µM
SMILES: CCOC(=O)C1C(C)C2C3C(=O)N(c4cccc5ccccc45)C(=O)C3C1(C)C1C(=O)N(c3cccc4ccccc34)C(=O)C21 (centres unmarked) [A3.027]

IC50 [3]: 7 µM
SMILES: O=C(Cc1ccc(Br)c2ccccc12)N/N=C/c1ccc([N+](=O)[O-])c(O)c1 [A4.009]

IC50 [2]: 9.7 µM
SMILES: CC1=C(C#N)C(=O)N(CCCO)C(=O)/C1=C\c1ccc(-c2cc(C)c(C)cc2[N+](=O)[O-])o1 [A9.019]

IC50 [3]: 32.4 µM
SMILES: O=C(CC(=O)N/N=C/c1ccco1)N/N=C/c1ccco1 [A4.102]

IC50 [1]: 20.6 µM
SMILES: O=C(N/N=C/c1ccco1)c1cccc(NC(=O)c2ccccc2Cl)c1 [A3.110]

IC50 (Table 11, read-out: IC50APN): 7 µM
SMILES: O=C(Cc1ccc(Br)c2ccccc12)N/N=C/c1ccc([N+](=O)[O-])c(O)c1 [A11.003]

IC50 (Table 5, unstarred values, read-out: IC50APN): 93.6 µM
SMILES: CC1(C)CC(CC/N=C/c2ccccc2)(Cc2ccccc2)CCO1 (centres unmarked) [A5.006]

IC50 (Table 12, read-out: IC50APN): 33 µM
SMILES: COc1ccc(C(OCCC(=O)NO)c2ccccc2)cc1 (centres unmarked) [A12.053]

IC50 [1]: 49.9 µM
SMILES: CCOC(=O)c1cc(Br)ccc1-c1ccc(/C=C2\C(=O)N=C(O)C(C#N)=C2C)o1 [A3.260]

IC50 [4]: 67.1 µM
SMILES: Cc1cccc(C(=O)Nc2ccc(C(=O)N/N=C/c3ccco3)cc2)c1 [A3.293]

IC50 [1]: 54.4 µM
SMILES: CC(=O)c1ccc(NC(=O)/C=C/c2ccc(C)o2)cc1 [A3.272]

IC50 (Table 1, unstarred values, read-out: IC50APN): 6.4 µM
SMILES: O=C(COc1ccc(Br)cc1)NO [A1.004]

IC50 [3]: 25.8 µM
SMILES: CCOc1ccc(Br)cc1C(=O)N/N=C/c1ccco1 [A4.079]

IC50 [3]: 51.1 µM
SMILES: Cc1ccc(/C=N\NC(=O)Cc2cccs2)o1 [A4.144]

IC50 [2]: 10.6 µM
SMILES: O=C(N/C(=C\c1ccco1)C(=O)N1CCCCC1)c1ccco1 [A9.022]

IC50 (Table 2, read-out: IC50APN): 8.6 µM
SMILES: C/C(=N/O)c1ccc2c(c1)OCCOCCOc1cc(/C(C)=N\O)ccc1OCCOCCO2 [A2.002]

IC50 [2]: 19 µM
SMILES: O=C(N/C(=C\c1ccco1)C(=O)N1CCCC(CO)C1)c1ccccc1 (centres unmarked) [A9.043]
